The EC50 is the concentration at which the effect is half-maximal.

Here are results for two compounds from ChEMBL document CHEMBL4406873, “Optimization of the chromone scaffold through QSAR and docking studies: Identification of potent inhibitors of ABCG2” (Eur J Med Chem, 2019).

The target in the assay is T1, Broad substrate specificity ATP-binding cassette transporter ABCG2 (Homo sapiens, UniProt Q9UNQ0).
T1 sequence (Q9UNQ0 whole entry): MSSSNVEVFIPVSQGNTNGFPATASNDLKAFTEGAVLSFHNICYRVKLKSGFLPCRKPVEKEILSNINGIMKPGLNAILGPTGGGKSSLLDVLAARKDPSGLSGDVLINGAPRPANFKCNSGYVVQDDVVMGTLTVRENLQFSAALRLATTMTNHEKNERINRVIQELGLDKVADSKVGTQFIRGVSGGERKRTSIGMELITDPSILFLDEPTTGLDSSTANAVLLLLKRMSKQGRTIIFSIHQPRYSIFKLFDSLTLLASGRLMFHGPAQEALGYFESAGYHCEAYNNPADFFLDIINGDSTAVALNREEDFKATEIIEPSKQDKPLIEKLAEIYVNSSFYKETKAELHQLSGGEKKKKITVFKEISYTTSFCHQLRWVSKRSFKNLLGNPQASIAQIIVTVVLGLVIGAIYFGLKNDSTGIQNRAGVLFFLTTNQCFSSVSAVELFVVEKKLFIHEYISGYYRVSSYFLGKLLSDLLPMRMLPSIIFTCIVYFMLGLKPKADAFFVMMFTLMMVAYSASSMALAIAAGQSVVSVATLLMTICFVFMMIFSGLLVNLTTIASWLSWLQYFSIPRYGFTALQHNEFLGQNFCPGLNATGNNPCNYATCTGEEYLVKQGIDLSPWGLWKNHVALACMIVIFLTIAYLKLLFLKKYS
Put plainly: Inhibition of ABCG2 (unknown origin) expressed in HEK293 cells assessed as increase in mitoxantrone accumulation incubated for 30 mins by flow cytometric method. Format: cell-based. A general note: A flow cytometer gives signals particle by particle.

`COc1ccc2[nH]cc(CCNC(=O)c3cc(=O)c4c(OCc5cc(Br)cc(Br)c5)cccc4o3)c2c1`: the EC50 stood at 97 nM. As for `COc1ccc2[nH]cc(CCNC(=O)c3cc(=O)c4c(OCc5ccc(Br)cc5Br)cccc4o3)c2c1`, the EC50 came out at 46 nM.
